These are literature values, as cited in patent publication US9867391B2, “Accelerating muscle recovery after immobilization-induced muscle atrophy” (NESTEC S.A., priority 2011, dated 2018).

The subject of the series is muscle protein synthesis. Particulars: Kastanos et al. 2006.

With `CC(C)C[C@H](N)C(=O)O` [leucine], the “muscle protein synthesis in young subjects” value (leucine added to the diet, young subjects) is “did not increased muscle protein synthesis”. Besides, under “same leucine supplementation, elderly”, the “muscle protein synthesis in elderly” value is recorded as “efficient”.
